Source: article PMC2151644 (The Journal of General Physiology, 2007)
Positions count from the first letter of the chain named.

Assays:
[1] = molecular target: T1, epithelial sodium channel (ENaC), β subunit (FLAG-tagged/G525C β-ENaC) (Rattus norvegicus, UniProt P37089+P37090+P37091, P37090:G525C); assay: dose-response block of short-circuit current in MDCK monolayers; assay type: cell-based
T1 sequence (P37090 1-638 G525C): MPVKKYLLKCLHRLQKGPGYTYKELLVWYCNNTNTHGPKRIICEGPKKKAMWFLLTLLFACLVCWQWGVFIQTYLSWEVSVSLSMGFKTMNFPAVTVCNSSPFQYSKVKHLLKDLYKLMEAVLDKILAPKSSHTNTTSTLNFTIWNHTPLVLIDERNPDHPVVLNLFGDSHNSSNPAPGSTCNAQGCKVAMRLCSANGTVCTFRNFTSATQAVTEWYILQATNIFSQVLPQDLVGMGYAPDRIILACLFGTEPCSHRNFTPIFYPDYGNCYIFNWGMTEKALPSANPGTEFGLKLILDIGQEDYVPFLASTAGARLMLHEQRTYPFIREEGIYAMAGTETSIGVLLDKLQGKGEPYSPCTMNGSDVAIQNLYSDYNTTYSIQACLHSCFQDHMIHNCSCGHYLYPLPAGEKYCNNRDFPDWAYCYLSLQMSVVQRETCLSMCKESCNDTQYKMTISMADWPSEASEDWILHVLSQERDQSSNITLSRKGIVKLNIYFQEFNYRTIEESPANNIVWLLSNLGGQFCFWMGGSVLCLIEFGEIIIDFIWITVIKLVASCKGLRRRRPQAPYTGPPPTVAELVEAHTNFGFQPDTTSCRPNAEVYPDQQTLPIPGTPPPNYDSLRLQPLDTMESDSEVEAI
T1 sequence (P37089 1-698): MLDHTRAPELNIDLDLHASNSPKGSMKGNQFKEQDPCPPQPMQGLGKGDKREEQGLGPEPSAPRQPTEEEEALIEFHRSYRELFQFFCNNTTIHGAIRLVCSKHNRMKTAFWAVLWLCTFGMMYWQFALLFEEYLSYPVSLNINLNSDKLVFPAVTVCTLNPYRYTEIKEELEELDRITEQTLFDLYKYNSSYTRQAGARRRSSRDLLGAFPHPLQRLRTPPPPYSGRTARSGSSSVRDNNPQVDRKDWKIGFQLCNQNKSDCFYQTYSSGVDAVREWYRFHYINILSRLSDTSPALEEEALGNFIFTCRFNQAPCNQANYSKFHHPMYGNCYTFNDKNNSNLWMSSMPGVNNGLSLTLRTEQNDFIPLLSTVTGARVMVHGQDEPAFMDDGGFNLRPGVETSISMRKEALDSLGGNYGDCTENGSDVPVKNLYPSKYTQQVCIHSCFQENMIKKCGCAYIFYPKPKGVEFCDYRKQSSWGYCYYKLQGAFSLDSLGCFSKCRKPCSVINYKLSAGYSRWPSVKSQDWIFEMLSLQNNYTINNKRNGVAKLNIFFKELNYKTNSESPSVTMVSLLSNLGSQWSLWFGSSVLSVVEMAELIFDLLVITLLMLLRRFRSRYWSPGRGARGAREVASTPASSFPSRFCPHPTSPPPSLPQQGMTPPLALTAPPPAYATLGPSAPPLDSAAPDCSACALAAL
T1 sequence (P37091 1-650): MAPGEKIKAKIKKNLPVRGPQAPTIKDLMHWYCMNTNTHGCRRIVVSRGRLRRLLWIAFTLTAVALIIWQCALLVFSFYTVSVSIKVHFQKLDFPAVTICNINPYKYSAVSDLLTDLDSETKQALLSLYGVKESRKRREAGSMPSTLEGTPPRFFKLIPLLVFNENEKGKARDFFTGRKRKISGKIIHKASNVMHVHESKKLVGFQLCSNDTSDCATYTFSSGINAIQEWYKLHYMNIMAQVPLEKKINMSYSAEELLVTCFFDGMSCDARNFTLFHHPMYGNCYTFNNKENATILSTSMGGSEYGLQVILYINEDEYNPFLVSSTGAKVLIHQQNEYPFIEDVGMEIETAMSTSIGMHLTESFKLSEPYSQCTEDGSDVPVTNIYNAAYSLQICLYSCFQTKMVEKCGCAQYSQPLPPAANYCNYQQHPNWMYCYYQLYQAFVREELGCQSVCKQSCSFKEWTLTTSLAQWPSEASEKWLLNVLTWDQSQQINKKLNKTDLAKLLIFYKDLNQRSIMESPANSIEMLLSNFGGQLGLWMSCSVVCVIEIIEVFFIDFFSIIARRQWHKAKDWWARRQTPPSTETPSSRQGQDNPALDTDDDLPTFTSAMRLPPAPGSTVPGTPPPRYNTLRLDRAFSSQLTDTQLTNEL

[2] = molecular target: T2, epithelial sodium channel (ENaC), β subunit (FLAG-tagged β-ENaC) (Rattus norvegicus, UniProt P37089+P37090+P37091); assay: as above; assay type: cell-based
T2 sequence (P37090 1-638): T1 sequence (P37090 1-638 G525C) with C525G
T2 sequence (P37089 1-698): T1 sequence (P37089 1-698)
T2 sequence (P37091 1-650): T1 sequence (P37091 1-650)

| Structure (SMILES) | Ki [1] [nM] | Ki [2] [nM] |
| --- | --- | --- |
| N=C(N)NC(=O)c1nc(Cl)c(N)nc1N [amiloride] | 36000 | 84 |
| NC(=NCc1ccccc1)NC(=O)c1nc(Cl)c(N)nc1N [benzamil] | 2900 | 18 |
